Test results reported in the supplement of paper PMC10307832.

Tests used:
Assay in all cases: relative viability (nuclei count vs DMSO), 5 days (fraction); higher = more cells survive
Irinotecan + Dasatinib = compound: CCc1c2c(nc3ccc(OC(=O)N4CCC(N5CCCCC5)CC4)cc13)-c1cc3c(c(=O)n1C2)COC(=O)[C@]3(O)CC [Irinotecan] + Cc1nc(Nc2ncc(C(=O)Nc3c(C)cccc3Cl)s2)cc(N2CCN(CCO)CC2)n1 [Dasatinib] (partner 0.075 µM)
Summary of the method: (§1)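 Cells from lung cancer lines were seeded into 1536-well plates and, one day later, dosed by pin tool. Treatments were either a single drug or a fixed dose of an anchor drug with five library-drug doses (not always all listed) in √10 steps. After 5 days, nuclei were stained in a one-step fixation (final 0.05% Triton X-100, 1% formaldehyde, 1 ug/ml Hoechst) and counted on 4× images, and relative viability is the treated-to-vehicle nuclei ratio, as the median of duplicate plates.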

Irinotecan + Bortezomib = compound: CCc1c2c(nc3ccc(OC(=O)N4CCC(N5CCCCC5)CC4)cc13)-c1cc3c(c(=O)n1C2)COC(=O)[C@]3(O)CC [Irinotecan] + CC(C)C[C@H](NC(=O)[C@H](Cc1ccccc1)NC(=O)c1cnccn1)B(O)O [Bortezomib] (partner 0.002 µM)
Summary of the method: as §1

RU-SKI 43 + Bortezomib = compound: CC[C@@H](C)CNCC(=O)N1CCC2=C([C@@H]1COC3=CC=CC(=C3)C)C=CS2 [RU-SKI 43] + CC(C)C[C@H](NC(=O)[C@H](Cc1ccccc1)NC(=O)c1cnccn1)B(O)O [Bortezomib] (partner 0.002 µM)
Summary of the method: as §1

Irinotecan + Crizotinib = compound: CCc1c2c(nc3ccc(OC(=O)N4CCC(N5CCCCC5)CC4)cc13)-c1cc3c(c(=O)n1C2)COC(=O)[C@]3(O)CC [Irinotecan] + C[C@@H](Oc1cc(-c2cnn(C3CCNCC3)c2)cnc1N)c1c(Cl)ccc(F)c1Cl [Crizotinib] (partner 1 µM)
Summary of the method: as §1

| Cell Line | relative viability (Irinotecan + Dasatinib; first compound 0.6325 µM) | relative viability (Irinotecan + Dasatinib; first compound 2 µM) | relative viability (Irinotecan + Dasatinib; first compound 6.325 µM) | relative viability (Irinotecan + Dasatinib; first compound 20 µM) | relative viability (Irinotecan + Bortezomib; first compound 0.6325 µM) | relative viability (Irinotecan + Bortezomib; first compound 2 µM) | relative viability (Irinotecan + Bortezomib; first compound 6.325 µM) | relative viability (Irinotecan + Bortezomib; first compound 20 µM) | relative viability (RU-SKI 43 + Bortezomib; first compound 0.1 µM) | relative viability (RU-SKI 43 + Bortezomib; first compound 0.3162 µM) | relative viability (RU-SKI 43 + Bortezomib; first compound 1 µM) | relative viability (RU-SKI 43 + Bortezomib; first compound 3.162 µM) | relative viability (RU-SKI 43 + Bortezomib; first compound 10 µM) | relative viability (Irinotecan + Crizotinib; first compound 0.6325 µM) | relative viability (Irinotecan + Crizotinib; first compound 2 µM) | relative viability (Irinotecan + Crizotinib; first compound 6.325 µM) | relative viability (Irinotecan + Crizotinib; first compound 20 µM) |
| --- | --- | --- | --- | --- | --- | --- | --- | --- | --- | --- | --- | --- | --- | --- | --- | --- | --- |
| LC-2-ad | 0.286 | 0.437 | 0.184 | 0.204 | 0.688 | 0.286 | 0.167 | 0.128 | 1.03 | 1.21 | 1.06 | 1.1 | 0.867 | 0.359 | 0.314 | 0.258 | 0.186 |
| NCI-H322M | 0.247 | 0.331 | 0.358 | 0.191 | 1.34 | 0.859 | 0.564 | 0.347 | 1.2 | 1.3 | 1.3 | 1.24 | 1.28 | 0.475 | 0.405 | 0.42 | 0.316 |
| HCC-827 | 0.459 | 0.219 | 0.247 | 0.227 | 1.03 | 0.923 | 0.639 | 0.416 | 0.989 | 1.07 | 1.18 | 1.11 | 1.02 | 0.487 | 0.287 | 0.282 | 0.191 |
| SW 1573 | 0.317 | 0.544 | 0.161 | 0.108 | 0.803 | 0.745 | 0.189 | 0.162 | 1.13 | 1.42 | 1.16 | 0.947 | 0.901 | 0.626 | 0.43 | 0.189 | 0.197 |
| NCI-H23 | 0.563 | 0.679 | 0.274 | 0.231 | 0.941 | 0.664 | 0.291 | 0.306 | 0.968 | 1.16 | 0.958 | 1.36 | 0.899 | 0.514 | 0.463 | 0.295 | 0.348 |
| EMC-BAC-2 | 0.292 | 0.324 | 0.215 | 0.304 | 0.952 | 0.717 | 0.242 | 0.218 | 1.14 | 1.13 | 1.11 | 1.11 | 1.04 | 0.332 | 0.291 | 0.216 | 0.19 |
| EPLC-272H | 0.146 | 0.296 | 0.15 | 0.265 | 0.744 | 0.635 | 0.317 | 0.217 | 0.905 | 1.08 | 1.09 |  | 1.09 | 0.504 | 0.163 | 0.2 | 0.264 |
| EKVX |  | 0.457 | 0.387 | 0.3 | 1.08 | 0.772 | 0.394 | 0.193 | 1.09 | 1.24 | 1.2 | 0.958 | 0.585 | 1.08 | 0.81 | 0.244 | 0.232 |
| HCC-15 |  | 0.523 | 0.196 | 0.123 | 0.603 | 0.623 | 0.374 | 0.176 | 1.12 | 1.28 | 1.2 | 1.08 | 1.11 | 0.479 | 0.319 | 0.158 | 0.18 |
| LXF-289 | 0.138 | 0.265 | 0.172 | 0.139 | 0.896 | 0.987 | 0.263 | 0.205 | 1.06 | 0.977 | 1.03 | 1.06 | 0.974 | 0.726 | 0.549 | 0.247 | 0.208 |
| NCI-H2126 |  | 0.55 | 0.41 | 0.135 |  | 1.08 | 0.632 | 0.34 | 1.15 | 1.25 | 1.23 | 1.12 | 1.08 |  | 0.58 | 0.361 | 0.354 |
| NCI-H596 | 0.576 | 0.765 | 0.703 | 0.633 | 0.867 | 1.09 | 0.709 | 0.79 | 1.32 | 0.93 | 1.34 | 0.936 | 1.1 | 0.945 | 0.924 | 0.741 | 0.68 |
| NCI-H3122 | 0.142 | 0.619 | 0.149 | 0.117 | 1.05 | 0.824 | 0.252 | 0.259 | 1.06 | 0.924 | 0.993 | 1.02 | 0.978 | 0.25 | 0.205 | 0.173 | 0.163 |
| NCI-H727 | 0.243 | 0.467 | 0.437 | 0.438 | 0.358 | 0.57 | 0.463 | 0.464 | 1 | 1.14 | 0.834 | 0.839 | 0.802 | 0.366 | 0.556 | 0.497 | 0.447 |
| NCI-H1355 |  | 0.85 | 0.511 | 0.272 | 1.02 | 1.12 | 0.561 | 0.265 | 1.21 | 1.29 | 1.18 | 1.21 | 1.2 | 0.896 | 0.407 | 0.234 | 0.233 |
| NCI-H1792 | 0.803 | 0.747 | 0.506 | 0.192 | 0.955 | 1.17 | 0.486 | 0.192 | 0.961 | 1.29 | 1.31 | 1.03 | 0.941 | 0.918 | 1.05 | 0.536 | 0.239 |
| NCI-H661 | 0.691 | 0.64 | 0.353 | 0.141 | 0.701 | 0.609 | 0.354 | 0.285 | 0.776 | 0.704 | 0.835 | 0.943 | 0.764 | 0.923 | 0.842 |  | 0.517 |
